Measurements reported in ChEMBL document CHEMBL1137975, “DNA binding ligands with in vivo efficacy in murine models of bacterial infection: optimization of internal aromatic amino acids” (2004).
≈ marks a conversion by molar mass, not a printed value.

Assays:
[1] = Minimum inhibitory concentration in mice against antimicrobial activity in […] (PISP 49619).; type: functional; settings: Streptococcus pneumoniae
Staphylococcus aureus = assay: Minimum inhibitory concentration in mice against antimicrobial activity in methicillin-resistant Staphylococcus aureus(MRSA 27660).; type: functional
Enterococcus faecalis = assay: Minimum inhibitory concentration in mice against antimicrobial activity in vancomycin-sensitive Enterococcus faecalis (VSEF 29212).
Mus musculus [2] = organism: Mus musculus; assay: Minimum inhibitory concentration was evaluated in mice against antimicrobial activity in methicillin-resistant Staphylococcus aureus(MRSA 27660); 1-2; type: functional
Mus musculus [3] = organism: Mus musculus; assay: Minimum inhibitory concentration was evaluated in mice against antimicrobial activity in […] (PISP 49619); 0.13-0.25; type: functional
Mus musculus [4] = organism: Mus musculus; assay: Minimum inhibitory concentration was evaluated in mice against antimicrobial activity in […] (PISP 49619); 0.5-2; type: functional
Mus musculus [5] = organism: Mus musculus; assay: Minimum inhibitory concentration was evaluated in mice against antimicrobial activity in […] Enterococcus faecalis (VSEF 29212); 2-8; type: functional

Compound	MIC [1] [mg/L]	MIC (Staphylococcus aureus) [mg/L]	MIC (Enterococcus faecalis) [mg/L]	MIC (Mus musculus [2]) [mg/L]	MIC (Mus musculus [3]) [mg/L]	MIC (Mus musculus [4]) [mg/L]	MIC (Mus musculus [5]) [mg/L]
Cn1cc(NC(=O)c2sccc2Cl)cc1C(=O)Nc1cc(C(=O)Nc2c[nH]c(C(=O)NCCN3CCOCC3)c2)n(C)c1	8 (≈ 12.8 µM)	16 (≈ 25.5 µM)	32 (≈ 51 µM)	–	–	–	–
Cn1cc(NC(=O)c2nc(NC(=O)c3cc(NC(=O)c4sccc4Cl)cn3C)cn2C)cc1C(=O)NCCN1CCOCC1	16 (≈ 24.9 µM)	> 32	> 32	–	–	–	–
Cn1cc(NC(=O)c2ccc(NC(=O)c3cc(NC(=O)c4ccccn4)cn3C)cc2)cc1C(=O)NCCN1CCOCC1	0.5 (≈ 0.835 µM)	> 32	> 32	–	–	–	–
Cn1cc(NC(=O)c2cc(NC(=O)c3cc(NC(=O)c4cc5ccccc5cn4)nn3C)cn2C)cc1C(=O)NCCN1CCOCC1	0.5 (≈ 0.766 µM)	1 (≈ 1.53 µM)	8 (≈ 12.3 µM)	–	–	–	–
CC(C)n1cc(NC(=O)c2sccc2Cl)cc1C(=O)Nc1cc(C(=O)Nc2cc(C(=O)NCCN3CCOCC3)n(C)c2)n(C)c1	2 (≈ 2.99 µM)	4 (≈ 5.98 µM)	4 (≈ 5.98 µM)	–	–	–	–
Cn1cc(NC(=O)c2cc(NC(=O)CCNC(=O)c3cc4ccccc4cn3)cn2C)cc1C(=O)NCCN1CCOCC1	8 (≈ 13.3 µM)	32 (≈ 53.3 µM)	16 (≈ 26.6 µM)	–	–	–	–
Cn1cc(NC(=O)c2cc(NC(=O)c3cc(NC(=O)c4cc5ccccc5cn4)cn3C)cn2C)cc1C(=O)NCCN1CCOCC1	0.06 (≈ 0.0921 µM)	0.5 (≈ 0.767 µM)	0.25 (≈ 0.384 µM)	–	–	–	–
Cn1cc(NC(=O)c2cc(NC(=O)c3cc(NC(=O)c4cc5ccccc5cn4)cn3C)cs2)cc1C(=O)NCCN1CCOCC1	0.5 (≈ 0.764 µM)	8 (≈ 12.2 µM)	> 32	–	–	–	–
Cn1cc(NC(=O)c2cc(NC(=O)c3cc(NC(=O)c4cc5ccccc5cn4)cs3)cn2C)cc1C(=O)NCCN1CCOCC1	–	–	–	2 (≈ 3.05 µM)	0.25 (≈ 0.382 µM)	–	–
Cn1cc(NC(=O)c2cc(NC(=O)c3cc(NC(=O)c4sccc4Cl)nn3C)cn2C)cc1C(=O)NCCN1CCOCC1	0.25 (≈ 0.389 µM)	8 (≈ 12.5 µM)	8 (≈ 12.5 µM)	–	–	–	–
Cn1cc(NC(=O)c2cc(NC(=O)c3ccc(NC(=O)c4sccc4Cl)cc3)cn2C)cc1C(=O)NCCN1CCOCC1	32 (≈ 50.1 µM)	32 (≈ 50.1 µM)	16 (≈ 25.1 µM)	–	–	–	–
Cn1cc(NC(=O)c2sccc2Cl)cc1C(=O)Nc1cc(C(=O)Nc2cccc(C(=O)NCCN3CCOCC3)c2)n(C)c1	8 (≈ 12.5 µM)	16 (≈ 25.1 µM)	16 (≈ 25.1 µM)	–	–	–	–
CC(C)n1cc(NC(=O)c2cc(NC(=O)c3sccc3Cl)cn2C)cc1C(=O)Nc1cc(C(=O)NCCN2CCOCC2)n(C)c1	0.5 (≈ 0.747 µM)	1 (≈ 1.49 µM)	1 (≈ 1.49 µM)	–	–	–	–
Cn1cc(NC(=O)c2cc(NC(=O)c3cc(NC(=O)c4cc5ccccc5cn4)cn3C)nn2C)cc1C(=O)NCCN1CCOCC1	0.25 (≈ 0.383 µM)	0.5 (≈ 0.766 µM)	1 (≈ 1.53 µM)	–	–	–	–
Cn1cc(NC(=O)c2cccc(NC(=O)c3cc(NC(=O)c4sccc4Cl)cn3C)c2)cc1C(=O)NCCN1CCOCC1	> 32	> 32	> 32	–	–	–	–
Cn1cc(NC(=O)c2ccc(NC(=O)c3cc(NC(=O)c4ccc(F)cc4F)cn3C)cc2)cc1C(=O)NCCN1CCOCC1	0.5 (≈ 0.789 µM)	32 (≈ 50.5 µM)	8 (≈ 12.6 µM)	–	–	–	–
Cn1cc(NC(=O)c2cc(NC(=O)c3nc(NC(=O)c4cc5ccccc5cn4)cn3C)cn2C)cc1C(=O)NCCN1CCOCC1	0.25 (≈ 0.383 µM)	1 (≈ 1.53 µM)	1 (≈ 1.53 µM)	–	–	–	–
Cn1cc(NC(=O)c2cc(NC(=O)c3cc(NC(=O)c4sccc4Cl)cn3C)c[nH]2)cc1C(=O)NCCN1CCOCC1	–	8 (≈ 12.8 µM)	–	–	–	2 (≈ 3.19 µM)	8 (≈ 12.8 µM)
Cn1cc(NC(=O)c2ccc(NC(=O)c3cc(NC(=O)c4cc5cc6c(cc5cn4)OCO6)cn3C)cc2)cc1C(=O)NCCN1CCOCC1	0.5 (≈ 0.722 µM)	0.06 (≈ 0.0866 µM)	0.5 (≈ 0.722 µM)	–	–	–	–
Cn1cc(NC(=O)c2cc(NC(=O)c3cc(NC(=O)c4sccc4Cl)c[nH]3)cn2C)cc1C(=O)NCCN1CCOCC1	2 (≈ 3.19 µM)	8 (≈ 12.8 µM)	2 (≈ 3.19 µM)	–	–	–	–
